The values that follow come from ChEMBL document CHEMBL3132771, “Machine-assisted synthesis of modulators of the histone reader BRD9 using flow methods of chemistry and frontal affinity chromatography” (Medchemcomm, 2014).

Calls of active or inactive are those of the source. The rule behind the calls is not given here.

The target of experiment [1] is T1, Bromodomain-containing protein 9 (Homo sapiens) (UniProt Q9H8M2).
T1 sequence (whole entry): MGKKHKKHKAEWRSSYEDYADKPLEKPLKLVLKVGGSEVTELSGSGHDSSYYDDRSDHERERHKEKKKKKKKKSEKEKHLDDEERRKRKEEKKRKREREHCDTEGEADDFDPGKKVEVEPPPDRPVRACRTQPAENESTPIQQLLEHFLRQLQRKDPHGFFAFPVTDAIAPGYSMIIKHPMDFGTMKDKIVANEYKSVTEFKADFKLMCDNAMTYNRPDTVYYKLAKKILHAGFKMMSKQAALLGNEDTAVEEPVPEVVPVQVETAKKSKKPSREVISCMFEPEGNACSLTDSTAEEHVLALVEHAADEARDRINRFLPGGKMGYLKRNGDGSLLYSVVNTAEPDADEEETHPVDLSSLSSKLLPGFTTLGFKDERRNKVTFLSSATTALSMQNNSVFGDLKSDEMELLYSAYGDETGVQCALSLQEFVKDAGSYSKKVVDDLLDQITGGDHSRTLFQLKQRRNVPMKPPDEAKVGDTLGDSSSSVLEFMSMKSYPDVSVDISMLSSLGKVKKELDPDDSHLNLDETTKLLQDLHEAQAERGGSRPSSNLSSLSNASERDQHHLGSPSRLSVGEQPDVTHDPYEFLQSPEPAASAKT
Description: Binding affinity to human recombinant biotinylated BRD9 assessed as change in melting temperature at 4 uM by thermal shift assay.

The next experiment concerns the target T2, Peregrin (Homo sapiens) (UniProt P55201).
T2 sequence (whole entry): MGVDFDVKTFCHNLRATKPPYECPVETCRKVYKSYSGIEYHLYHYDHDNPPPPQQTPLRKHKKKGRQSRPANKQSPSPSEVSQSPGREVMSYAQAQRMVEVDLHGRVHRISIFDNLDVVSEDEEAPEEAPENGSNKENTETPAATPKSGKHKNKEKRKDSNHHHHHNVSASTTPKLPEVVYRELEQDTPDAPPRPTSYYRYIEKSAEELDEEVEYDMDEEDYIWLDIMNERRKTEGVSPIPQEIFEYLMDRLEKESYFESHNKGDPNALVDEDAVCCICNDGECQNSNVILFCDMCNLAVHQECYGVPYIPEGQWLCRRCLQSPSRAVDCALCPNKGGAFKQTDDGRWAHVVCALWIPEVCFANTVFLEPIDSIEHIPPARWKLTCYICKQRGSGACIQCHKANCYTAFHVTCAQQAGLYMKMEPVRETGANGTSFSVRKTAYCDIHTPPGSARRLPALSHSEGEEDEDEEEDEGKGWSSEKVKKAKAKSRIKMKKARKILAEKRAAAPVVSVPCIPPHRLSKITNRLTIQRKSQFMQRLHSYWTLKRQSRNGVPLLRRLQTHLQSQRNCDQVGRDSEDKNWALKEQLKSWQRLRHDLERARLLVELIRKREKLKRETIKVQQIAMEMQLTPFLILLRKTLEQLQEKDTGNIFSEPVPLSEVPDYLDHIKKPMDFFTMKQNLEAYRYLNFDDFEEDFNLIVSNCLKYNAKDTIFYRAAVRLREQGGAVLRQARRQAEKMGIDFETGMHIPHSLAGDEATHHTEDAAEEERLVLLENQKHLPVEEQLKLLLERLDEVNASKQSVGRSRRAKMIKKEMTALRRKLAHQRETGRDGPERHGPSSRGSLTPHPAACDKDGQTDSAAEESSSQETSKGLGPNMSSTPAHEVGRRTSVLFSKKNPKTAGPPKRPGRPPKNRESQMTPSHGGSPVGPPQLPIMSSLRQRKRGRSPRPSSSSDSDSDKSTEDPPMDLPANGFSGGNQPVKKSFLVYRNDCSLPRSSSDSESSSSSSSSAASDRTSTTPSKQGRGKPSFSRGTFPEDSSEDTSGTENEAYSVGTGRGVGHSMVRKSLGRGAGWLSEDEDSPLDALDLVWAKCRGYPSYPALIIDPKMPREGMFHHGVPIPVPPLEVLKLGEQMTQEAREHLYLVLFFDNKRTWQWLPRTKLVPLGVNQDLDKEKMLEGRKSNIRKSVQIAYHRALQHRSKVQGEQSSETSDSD
Description: Binding affinity to BRPF1 (unknown origin) at 4 uM by thermal shift assay.

For experiment [2], the target named is CREB-binding protein (Homo sapiens) (UniProt Q92793). Description: Binding affinity to CREBBP (unknown origin) at 4 uM by thermal shift assay.
Experiment [3] concerns the target T1, Bromodomain-containing protein 9 (Homo sapiens). Description: Binding affinity to human recombinant biotinylated BRD9 by UV spectrophotometric analysis.
For experiment [4], the species on record is Homo sapiens. Description: Binding affinity to EP300A (unknown origin) at 4 uM by thermal shift assay.
Experiment [5] deals with T3, Transcription intermediary factor 1-alpha (Homo sapiens) (UniProt O15164).
T3 sequence (whole entry): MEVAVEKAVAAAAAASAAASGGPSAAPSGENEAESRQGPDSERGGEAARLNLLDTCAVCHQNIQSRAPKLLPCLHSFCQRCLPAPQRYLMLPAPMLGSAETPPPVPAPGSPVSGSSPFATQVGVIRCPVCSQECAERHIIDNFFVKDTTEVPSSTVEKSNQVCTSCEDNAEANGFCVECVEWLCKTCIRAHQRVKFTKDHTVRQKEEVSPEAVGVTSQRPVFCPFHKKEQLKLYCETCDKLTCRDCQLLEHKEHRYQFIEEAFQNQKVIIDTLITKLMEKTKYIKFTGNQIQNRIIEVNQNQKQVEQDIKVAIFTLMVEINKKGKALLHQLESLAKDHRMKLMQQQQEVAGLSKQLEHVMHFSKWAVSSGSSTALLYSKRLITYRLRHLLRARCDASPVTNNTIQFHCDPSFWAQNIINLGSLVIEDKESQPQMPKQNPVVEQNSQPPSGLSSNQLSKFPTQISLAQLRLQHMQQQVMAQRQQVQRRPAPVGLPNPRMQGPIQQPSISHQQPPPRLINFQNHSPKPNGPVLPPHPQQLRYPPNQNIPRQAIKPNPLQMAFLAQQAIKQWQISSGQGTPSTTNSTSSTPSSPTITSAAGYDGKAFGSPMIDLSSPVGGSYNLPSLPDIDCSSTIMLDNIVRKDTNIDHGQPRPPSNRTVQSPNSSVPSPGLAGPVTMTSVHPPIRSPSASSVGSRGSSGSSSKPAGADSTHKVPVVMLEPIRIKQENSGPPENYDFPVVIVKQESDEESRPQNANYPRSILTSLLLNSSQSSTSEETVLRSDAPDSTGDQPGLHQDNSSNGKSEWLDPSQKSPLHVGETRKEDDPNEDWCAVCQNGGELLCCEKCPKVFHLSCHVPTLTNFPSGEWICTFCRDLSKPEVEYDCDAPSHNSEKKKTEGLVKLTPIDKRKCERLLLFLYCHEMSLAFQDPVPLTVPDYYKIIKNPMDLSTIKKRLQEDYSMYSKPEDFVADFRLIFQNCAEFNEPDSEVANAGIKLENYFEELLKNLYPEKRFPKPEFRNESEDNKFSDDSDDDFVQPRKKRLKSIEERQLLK
The experiment is described as follows: Binding affinity to TIF1 (unknown origin) at 4 uM by thermal shift assay.

Experiment [6] concerns the target Bromodomain-containing protein 4 (Homo sapiens) (UniProt O60885). Description: Binding affinity to BRD4 (unknown origin) at 4 uM by thermal shift assay.
For experiment [7], the target named is Chromatin remodeling regulator CECR2 (Homo sapiens) (UniProt Q9BXF3). The experiment is described as follows: Binding affinity to CECR2 (unknown origin) at 4 uM by thermal shift assay.
The species entered for experiment [8] is Homo sapiens. The experiment is described as follows: Binding affinity to BRD1A (unknown origin) at 4 uM by thermal shift assay.
The target in experiment [9] is T1, Bromodomain-containing protein 9 (Homo sapiens). Description: Binding affinity to human recombinant biotinylated BRD9 assessed as retention volume at 4 uM by FAC-MS analysis.
The target of experiment [10] is T4, Bromodomain and PHD finger-containing protein 3 (Homo sapiens) (UniProt Q9ULD4).
T4 sequence (whole entry): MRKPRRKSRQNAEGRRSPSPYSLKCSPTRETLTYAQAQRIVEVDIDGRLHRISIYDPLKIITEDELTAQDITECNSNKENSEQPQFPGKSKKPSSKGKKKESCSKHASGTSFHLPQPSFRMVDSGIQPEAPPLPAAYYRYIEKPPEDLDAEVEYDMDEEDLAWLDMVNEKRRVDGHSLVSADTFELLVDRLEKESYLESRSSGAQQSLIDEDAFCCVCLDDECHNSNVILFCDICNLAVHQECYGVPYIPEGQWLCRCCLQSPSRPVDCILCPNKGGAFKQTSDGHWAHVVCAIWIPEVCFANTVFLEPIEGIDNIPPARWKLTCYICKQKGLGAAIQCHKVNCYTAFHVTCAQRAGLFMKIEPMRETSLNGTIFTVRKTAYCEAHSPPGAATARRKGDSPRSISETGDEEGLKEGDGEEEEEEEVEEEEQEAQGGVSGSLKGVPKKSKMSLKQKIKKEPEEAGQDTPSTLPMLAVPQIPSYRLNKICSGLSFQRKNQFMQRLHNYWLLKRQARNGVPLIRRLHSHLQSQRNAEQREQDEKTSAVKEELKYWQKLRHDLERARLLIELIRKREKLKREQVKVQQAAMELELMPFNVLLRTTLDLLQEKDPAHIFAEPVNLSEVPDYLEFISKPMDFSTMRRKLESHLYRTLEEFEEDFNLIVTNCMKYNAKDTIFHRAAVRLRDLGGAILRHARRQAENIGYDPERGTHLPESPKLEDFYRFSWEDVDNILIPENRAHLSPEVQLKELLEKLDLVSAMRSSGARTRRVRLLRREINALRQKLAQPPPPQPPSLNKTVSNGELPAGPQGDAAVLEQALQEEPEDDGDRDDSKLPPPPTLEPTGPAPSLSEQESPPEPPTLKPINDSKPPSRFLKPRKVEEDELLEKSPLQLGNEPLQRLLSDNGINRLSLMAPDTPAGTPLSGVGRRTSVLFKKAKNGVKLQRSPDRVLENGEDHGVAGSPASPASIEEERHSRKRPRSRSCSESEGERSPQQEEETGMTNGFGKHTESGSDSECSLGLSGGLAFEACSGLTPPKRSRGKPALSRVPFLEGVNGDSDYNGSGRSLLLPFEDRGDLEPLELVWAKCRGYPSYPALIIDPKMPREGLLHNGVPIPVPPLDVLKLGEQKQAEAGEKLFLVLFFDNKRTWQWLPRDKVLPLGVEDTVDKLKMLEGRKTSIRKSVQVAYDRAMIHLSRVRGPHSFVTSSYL
Description: Binding affinity to BRPF3 (unknown origin) at 4 uM by thermal shift assay.

In experiment [11] the target is T1, Bromodomain-containing protein 9 (Homo sapiens). The experiment is described as follows: Binding affinity to human recombinant biotinylated BRD9 at 4 uM after 120 mins by FAC-MS analysis.
Experiment [12] has the same target. Description: Binding affinity to human recombinant biotinylated BRD9 assessed as retention volume at 50 uM by FAC-MS analysis.
Experiment [13] has as its target T5, Bromodomain-containing protein 9 (Homo sapiens, UniProt Q9H8M2).
T5 sequence (Q9H8M2 whole entry): T1 sequence (whole entry)
Description: Binding affinity to human recombinant biotinylated BRD9 compound treated in ammonium acetate buffer by FAC-MS analysis.

The target of experiment [14] is T5, Bromodomain-containing protein 9. The experiment is described as follows: Binding affinity to human recombinant biotinylated BRD9 compound treated in PBS buffer by FAC-MS analysis.

Chain of Chromatin remodeling regulator CECR2 (Homo sapiens) (Q9BXF3 whole entry, looked up): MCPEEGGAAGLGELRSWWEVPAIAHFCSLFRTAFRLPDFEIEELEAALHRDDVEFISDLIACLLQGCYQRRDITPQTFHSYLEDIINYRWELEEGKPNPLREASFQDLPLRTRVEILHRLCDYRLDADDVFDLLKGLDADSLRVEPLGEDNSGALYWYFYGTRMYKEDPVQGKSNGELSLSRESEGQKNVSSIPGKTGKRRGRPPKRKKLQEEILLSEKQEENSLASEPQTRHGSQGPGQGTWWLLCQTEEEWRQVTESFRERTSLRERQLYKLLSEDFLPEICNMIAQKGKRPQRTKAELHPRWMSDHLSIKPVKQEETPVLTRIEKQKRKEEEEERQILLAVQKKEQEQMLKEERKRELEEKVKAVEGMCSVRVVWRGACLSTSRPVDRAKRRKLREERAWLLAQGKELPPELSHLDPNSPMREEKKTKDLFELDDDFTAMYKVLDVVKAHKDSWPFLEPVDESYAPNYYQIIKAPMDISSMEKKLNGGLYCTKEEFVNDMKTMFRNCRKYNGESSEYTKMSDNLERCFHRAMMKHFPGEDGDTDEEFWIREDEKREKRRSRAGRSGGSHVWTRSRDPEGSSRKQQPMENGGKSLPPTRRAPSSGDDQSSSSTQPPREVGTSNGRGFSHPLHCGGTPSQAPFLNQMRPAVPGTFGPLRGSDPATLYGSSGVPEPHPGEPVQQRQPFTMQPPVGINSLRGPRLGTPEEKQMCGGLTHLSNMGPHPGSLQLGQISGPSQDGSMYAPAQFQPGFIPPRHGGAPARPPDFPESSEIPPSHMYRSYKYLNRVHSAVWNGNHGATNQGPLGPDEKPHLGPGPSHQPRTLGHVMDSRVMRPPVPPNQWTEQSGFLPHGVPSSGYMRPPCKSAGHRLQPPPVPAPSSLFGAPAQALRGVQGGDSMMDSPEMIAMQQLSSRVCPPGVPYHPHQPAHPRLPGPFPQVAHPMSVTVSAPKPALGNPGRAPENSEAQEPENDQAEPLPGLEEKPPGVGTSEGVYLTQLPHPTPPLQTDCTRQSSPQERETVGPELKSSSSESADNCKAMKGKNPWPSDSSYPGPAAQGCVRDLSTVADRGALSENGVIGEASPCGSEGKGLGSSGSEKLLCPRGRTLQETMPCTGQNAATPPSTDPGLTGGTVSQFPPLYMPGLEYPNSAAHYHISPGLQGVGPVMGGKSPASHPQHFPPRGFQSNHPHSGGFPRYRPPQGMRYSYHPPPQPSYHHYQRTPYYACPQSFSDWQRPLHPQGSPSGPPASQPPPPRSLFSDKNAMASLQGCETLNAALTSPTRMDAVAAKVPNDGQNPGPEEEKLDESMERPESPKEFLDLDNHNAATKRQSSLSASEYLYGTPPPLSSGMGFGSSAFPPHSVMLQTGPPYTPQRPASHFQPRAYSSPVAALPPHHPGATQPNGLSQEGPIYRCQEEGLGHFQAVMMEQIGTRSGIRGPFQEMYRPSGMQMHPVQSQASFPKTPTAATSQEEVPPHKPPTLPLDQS
Chain of CREB-binding protein (Homo sapiens) (Q92793 2-2442 limits assumed): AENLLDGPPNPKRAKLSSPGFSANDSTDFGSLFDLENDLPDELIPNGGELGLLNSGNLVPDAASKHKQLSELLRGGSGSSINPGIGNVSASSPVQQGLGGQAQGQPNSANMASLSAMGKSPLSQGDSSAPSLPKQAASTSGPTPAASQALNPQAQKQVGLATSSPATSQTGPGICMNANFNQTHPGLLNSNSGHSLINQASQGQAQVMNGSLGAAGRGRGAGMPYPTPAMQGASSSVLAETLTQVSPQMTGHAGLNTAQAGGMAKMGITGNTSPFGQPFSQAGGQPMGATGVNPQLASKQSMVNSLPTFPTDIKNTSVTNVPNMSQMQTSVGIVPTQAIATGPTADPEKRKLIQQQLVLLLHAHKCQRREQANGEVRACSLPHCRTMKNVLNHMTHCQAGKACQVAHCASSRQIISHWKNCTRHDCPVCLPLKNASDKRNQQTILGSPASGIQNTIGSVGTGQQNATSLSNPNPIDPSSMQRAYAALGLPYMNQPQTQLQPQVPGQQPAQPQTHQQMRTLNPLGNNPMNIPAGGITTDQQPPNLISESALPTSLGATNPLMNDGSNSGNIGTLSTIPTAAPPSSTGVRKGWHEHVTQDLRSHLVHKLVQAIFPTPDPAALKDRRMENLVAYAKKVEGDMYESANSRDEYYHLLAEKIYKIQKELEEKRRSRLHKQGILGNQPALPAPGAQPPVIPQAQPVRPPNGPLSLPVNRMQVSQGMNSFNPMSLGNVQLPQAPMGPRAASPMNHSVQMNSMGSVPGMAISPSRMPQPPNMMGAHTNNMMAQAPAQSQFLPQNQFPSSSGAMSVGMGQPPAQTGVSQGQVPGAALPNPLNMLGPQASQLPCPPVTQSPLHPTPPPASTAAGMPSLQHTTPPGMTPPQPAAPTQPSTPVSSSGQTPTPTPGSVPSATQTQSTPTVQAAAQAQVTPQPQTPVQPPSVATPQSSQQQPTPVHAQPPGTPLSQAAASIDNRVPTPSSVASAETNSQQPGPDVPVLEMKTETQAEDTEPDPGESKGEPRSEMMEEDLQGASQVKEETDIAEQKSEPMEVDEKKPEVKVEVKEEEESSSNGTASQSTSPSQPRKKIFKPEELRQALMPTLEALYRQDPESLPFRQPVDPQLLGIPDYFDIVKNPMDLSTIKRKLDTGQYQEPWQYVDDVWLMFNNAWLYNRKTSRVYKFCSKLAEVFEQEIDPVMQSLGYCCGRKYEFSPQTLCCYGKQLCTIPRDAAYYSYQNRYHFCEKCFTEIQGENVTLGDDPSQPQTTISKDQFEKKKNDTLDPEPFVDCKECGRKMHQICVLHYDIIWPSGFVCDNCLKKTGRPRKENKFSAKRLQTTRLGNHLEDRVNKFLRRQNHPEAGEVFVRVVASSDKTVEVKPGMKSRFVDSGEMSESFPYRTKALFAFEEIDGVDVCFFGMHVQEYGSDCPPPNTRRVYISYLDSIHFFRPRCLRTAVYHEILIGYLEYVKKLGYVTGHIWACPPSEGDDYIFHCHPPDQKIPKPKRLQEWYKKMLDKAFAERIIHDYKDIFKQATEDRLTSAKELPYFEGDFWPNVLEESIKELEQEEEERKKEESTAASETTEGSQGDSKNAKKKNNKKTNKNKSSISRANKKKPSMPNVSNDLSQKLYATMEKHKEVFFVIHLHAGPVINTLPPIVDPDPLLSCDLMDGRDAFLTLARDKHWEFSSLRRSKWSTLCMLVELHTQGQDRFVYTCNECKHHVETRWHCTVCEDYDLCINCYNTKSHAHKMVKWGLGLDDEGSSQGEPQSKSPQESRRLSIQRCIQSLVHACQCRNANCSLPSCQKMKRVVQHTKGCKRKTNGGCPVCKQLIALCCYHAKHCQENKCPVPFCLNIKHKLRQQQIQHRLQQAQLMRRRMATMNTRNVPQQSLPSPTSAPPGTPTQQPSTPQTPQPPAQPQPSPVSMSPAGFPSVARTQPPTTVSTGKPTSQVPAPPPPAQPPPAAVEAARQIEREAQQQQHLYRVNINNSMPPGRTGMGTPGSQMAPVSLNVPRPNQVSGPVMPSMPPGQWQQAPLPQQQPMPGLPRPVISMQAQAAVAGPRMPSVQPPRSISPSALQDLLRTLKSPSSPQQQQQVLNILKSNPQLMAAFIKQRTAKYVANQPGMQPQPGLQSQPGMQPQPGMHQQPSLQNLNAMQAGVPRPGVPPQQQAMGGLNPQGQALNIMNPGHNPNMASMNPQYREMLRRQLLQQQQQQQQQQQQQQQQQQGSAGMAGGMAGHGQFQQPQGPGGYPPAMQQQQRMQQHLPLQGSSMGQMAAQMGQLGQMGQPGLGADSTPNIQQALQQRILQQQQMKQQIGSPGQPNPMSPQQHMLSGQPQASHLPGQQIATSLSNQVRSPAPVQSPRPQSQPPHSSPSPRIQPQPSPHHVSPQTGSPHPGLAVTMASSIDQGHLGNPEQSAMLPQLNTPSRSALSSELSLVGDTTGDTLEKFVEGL

As to `COc1ccc(-c2ccc3nnc(C(F)(F)F)n3n2)cc1`, the ΔTm (in general, the shift of the melting midpoint relative to a reference) in experiment [1] came out at 0.6 °C. In addition, the result (at Peregrin (Homo sapiens); in [2]; in the experiment filed under Homo sapiens [4]; in experiment [5]; in experiment [6]; in [7]) was inactive. The outcome (in the experiment listed under Homo sapiens [8]; in experiment [10]) was inactive. The outcome in [3] was Active. In addition, in [9], the Activity stood at 270 µL.

`Cc1ccc(-c2cc(N)c3nnc(C)n3n2)cc1NS(=O)(=O)c1cccc(Cl)c1`: the result in experiment [3] was Active.

As to `CCOC(=O)Nc1cc(-c2ccc(C)c(NS(C)(=O)=O)c2)nn2c(C)nnc12`, in experiment [1], the ΔTm came out at 8.8 °C. The outcome in experiment [11] was inactive. The Activity in experiment [12] is 324 µL; in experiment [9], greater than 3600 µL.

Consider `Cc1nnc2c(NC(=O)OC(C)(C)C)cc(-c3ccccc3)nn12`, for which the Kd in [13] and in experiment [14] was 8.35 µM each time.

With `Cc1ccc(-c2cc(N)c3nnc(C)n3n2)cc1NS(=O)(=O)c1ccc(Cl)c(Cl)c1`, in [1], the ΔTm is 4.3 °C. In addition, the result (in experiment [3]; in the experiment filed under Homo sapiens [4]; in experiment [6]) was Active. Also, in experiment [9], the Activity was 1170 µL.

For the compound `Cc1ccc(-c2cc(N)c3nnc(C)n3n2)cc1NS(=O)(=O)c1ccccc1Cl`, in [1], the ΔTm stood at 2.4 °C. Also, the result in experiment [3] and in experiment [6] was Active. In addition, the Activity in experiment [9] stood at 784 µL.

On to `FC(F)(F)c1nnc2ccc(-c3ccccc3)nn12`, for which the ΔTm in experiment [1] was -0.6 °C. For the same compound, the outcome (on Peregrin (Homo sapiens); in [2]; in the experiment filed under Homo sapiens [4]; in experiment [5]; in experiment [6]; in [7]) was inactive. Besides, the outcome (in the experiment filed under Homo sapiens [8]; in experiment [10]) was inactive. In addition, in [3], the outcome was Active. In addition, in experiment [9], the Activity was 212 µL.

For the compound `Cc1nnc2c(N)cc(Cl)nn12`, the result in [3] was Active.

For `CCOC(=O)N(c1cc(-c2cc(N)c3nnc(C)n3n2)ccc1C)S(=O)(=O)c1ccc(Cl)cc1`, the ΔTm in experiment [1] worked out at 2.7 °C. Moreover, the outcome (at Peregrin (Homo sapiens); in [2]; in the experiment listed under Homo sapiens [4]; in [5]; in experiment [6]; in experiment [7]) was inactive. Moreover, the result (in the experiment filed under Homo sapiens [8]; in experiment [10]) was inactive. Moreover, the result in experiment [3] was Active. Besides, the Activity in experiment [9] was determined as 947 µL.

As to `CCOC(=O)N(c1cc(-c2cc(N)c3nnc(C)n3n2)ccc1C)S(=O)(=O)c1ccccc1Cl`, in experiment [3], the result was Active.
